Marks after values point to notes of the source that are not given here. Where no end group is shown, it is not given here. The star is where a group is joined. Myristoyl = CCCCCCCCCCCCCC(=O)*
Columns and labels:
PPAR γ = target: T1, PPAR γ (Mus musculus, UniProt P37238); assay: PPAR γ reporter activity assay in 3T3-L1 preadipocytes; format: cell-based; conditions: 6 hrs, 2′5′-dideoxyadenosine 10 μM, PKAi 30 μM; for ABA-induced PPAR γ activation, effect of inhibitor: ABA 10 μM; for Ros-induced PPAR γ activation, effect of inhibitor: Ros 1 μM
T1 construct: expressed in transfected cells; host or cells: 3T3-L1 pre-adipocytes
T1 sequence (P37238 31-505 limits assumed): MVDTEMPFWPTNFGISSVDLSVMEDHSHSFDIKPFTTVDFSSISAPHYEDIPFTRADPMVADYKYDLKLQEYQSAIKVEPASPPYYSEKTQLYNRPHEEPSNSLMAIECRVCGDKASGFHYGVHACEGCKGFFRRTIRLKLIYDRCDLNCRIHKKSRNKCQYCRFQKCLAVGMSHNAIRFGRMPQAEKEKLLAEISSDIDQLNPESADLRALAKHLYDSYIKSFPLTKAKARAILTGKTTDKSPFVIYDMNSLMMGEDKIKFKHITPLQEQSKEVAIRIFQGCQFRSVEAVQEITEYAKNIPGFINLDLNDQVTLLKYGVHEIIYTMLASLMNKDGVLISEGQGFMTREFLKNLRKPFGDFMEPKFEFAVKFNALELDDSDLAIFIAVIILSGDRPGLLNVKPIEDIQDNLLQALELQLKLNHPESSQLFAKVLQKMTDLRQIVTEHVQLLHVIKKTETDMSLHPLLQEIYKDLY
Description: For 3T3-L1 preadipocytes cells were treated for 6-h with vehicle (DMSO) or Ros (1 μM) with ABA (10 μM), the cAMP-inhibitor 2′5′ dideoxyadenosine (dideoxy, 10 μM), or 14-22 myristolated PKA inhibitor fragment (PKAi, 30 μM). […] Luciferase activity was normalized to pRL activity in the cell extracts and relative luciferase activity was calculated a ratio of the activity in the treatment wells to control wells. Data are represented as mean±standard error.
A pCMX.PPAR γ expression plasmid and a pTKPPRE3x luciferase reporter plasmid driven by the PPRE-containing Acyl-CoA oxidase promoter (kindly provided by Dr. R M. Evans, The Salk Institute, San Diego, Calif.) were purified using Qiagen's Maxi kit (Valencia, Calif.). […] Cells were co-transfected in the […] with 1.5 μg plasmid DNA and 25 ng of pRL reporter control using F-2 transfection reagents (Targeting Systems, Santee, Calif.) according to the manufacturer's protocol. […] Cells were then treated in replicates of 8 with vehicle (DMSO), rosiglitazone (1 or 10 μM; Cayman Chemicals, Arm Arbor, Mich.), or ABA (10 μM; Sigma) with and without 2′5′ dideoxyadenosine (10 μM; Sigma) and 14-22 myristolated PKA inhibitor fragment (PKAi, 30 μM; Sigma). […] Luciferase activity, normalized to pRL activity in the cell extracts was determined by using the Dual Luciferase II reporter assay system (Promega, Madison, Wis.) using a Modulus 96-well luminometer (Turner Biosystems, Sunnyvale, Calif.). All values were normalized to control wells to calculate relative luciferase activity.

[1] = as stated in U.S. Pat. No. 6,515,132; cited from earlier work
[2] = Dietary ABA and rosiglitazone in obese db/db mice: body and organ weights; format: in vivo; conditions: for Final body weight / Ab. WAT % Body Weight / Liver % Body Weight / Sc. WAT % Body Weight: with or without ABA 100 mg/kg diet; for Final body weight: 60 days
Description: Twelve-fifteen week-old BKS.Cg-+Lepr^db/+Lepr^db/OlaHsd (db/db) mice were housed at the animal facilities at Virginia Polytechnic Institute and State University in a room maintained at 75° F., with a 12:12 h light-dark cycle starting from 6:00 AM. All experimental procedures were approved by the Institutional Animal Care and Use Committee of Virginia Polytechnic Institute and State University and met or exceeded requirements of the Public Health Service, National Institutes of Health and the Animal Welfare Act. […] Louis, Mo.) for 60 days. Mice were weighed and fasting (12 h) blood glucose levels were taken weekly. Blood glucose levels were assessed with an ACCU-CHEK® Glucometer (Roche, Indianapolis, Ind.). […] On day 60 mice were sacrificed by CO2 narcosis with secondary thoracotomy. Abdominal WAT, inguinal subcutaneous WAT, and liver were then excised and weighed. Abdominal and subcutaneous WAT were then digested and fractionated.

[3] = db/db mice, Roshi diet (70 mg/kg diet), day 60
[4] = db/db mice, Roslo diet (10 mg/kg diet), day 60

## C[C@H]1O[C@@H](n2cnc3c(N)ncnc32)C[C@@H]1O [2′5′-dideoxyadenosine]
PPAR γ
  ABA-induced PPAR γ activation, effect of inhibitor: prevented
  Ros-induced PPAR γ activation, effect of inhibitor: no effect

## O=C1NC(=O)C(Cc2ccc3c(c2)CC[C@H](Cc2ccccc2)O3)S1 (stereo partly shown) [Englitazone]
[1]
  current minimum effective drug dose: 200 μmol/kg diet

## CN(CCOc1ccc(CC2SC(=O)NC2=O)cc1)c1ccccn1 (stereo not shown) [rosiglitazone]
[2]; db/db mice fed Ros^hi (70 mg/kg diet)
  edema in the interscapular region: significant edema
[2]; db/db mice, Roshi diet (70 mg/kg diet)
  Final body weight: 64.4 ± 2.4^d g
[2]; [3]
  Ab. WAT % Body Weight: 4.6 ± 0.61^a % Body Weight
  Liver % Body Weight: 6.7 ± 2.3^a % Body Weight
  Sc. WAT % Body Weight: 3.2 ± 0.43 % Body Weight
[2]; db/db mice, Roslo diet (10 mg/kg diet)
  Final body weight: 56.4 ± 2.4^bc g
[2]; [4]
  Ab. WAT % Body Weight: 6.7 ± 0.61^bc % Body Weight
  Liver % Body Weight: 9.2 ± 0.51^b % Body Weight
  Sc. WAT % Body Weight: 2.4 ± 0.43 % Body Weight
[2]; db/db mice, day 60, low dose Ros, ABA 100 mg/kg diet
  liver weights (in words): significantly increased
[2]; db/db mice, both low- and high-dose rosiglitazone, 60-day dietary intervention
  body weights of the mice (in words): significantly increased

## PKAi: 14-22 myristoylated PKA inhibitor fragment (Myristoyl-SGRTGRRNA; UniProt P61925 14-22, looked up, fragment)
PPAR γ
  ABA-induced PPAR γ activation, effect of inhibitor: prevented
  Ros-induced PPAR γ activation, effect of inhibitor: no effect

— patent US9119881B2, “Method of synergistically enhancing the therapeutic efficacy and safety of medication through a combination therapy” (priority 2010, dated 2015)
